# Test system: Staphylococcus aureus
# Assay: Replicate-well microdilution growth test (32 replicates per antibiotic concentration), growth ranked by viability in culture and direct epifluorescence
# Format: cell-based
# Settings: for growth response of replicate wells: 5 hours at 37° C.
# Excerpt: Format: In general terms the entire series of tests followed the methods for use of microdilution plates. Each of the eight antibiotic concentrations was represented by 32 replicate wells, thus amounting to 8×32[256] test wells in a three plate array.
# Organisms: Two cultures of Staphylococcus aureus, with one isolated from plates containing penicillin supplemented agar to provide cells of known β lactamase activity.
# Inoculum: A target level of 10^2 cells/wells was selected to test an adequate number of organisms within each treatment. In the examples 2-4 the aim was to include an increasing proportion of resistant/β lactamase positive cells. Preparation by dilutions at these levels will undoubtedly be prone to errors.
# Incubation: Sealed plates incubated for 5 hours at 37° C. [previously shown to provide significant growth]. At the end of incubation well contents […] were transferred to 200 μl using individual sterile pipette tips [i.e. one/well].
# A 100 μl sample of diluted well contents was plated and spread on culture plates. The growth, corresponding to the situation at 5 hours, was assessed after incubation of the culture plates overnight.
# ii. Direct Epifluorescence Method
# A second 100 μl sample was filtered through a commercially available 0.2μ nuclepore membrane. This non-fluorescent, black filter was supported on a 5.0μcellulosic membrane filter. Discrete 3.0 mm diameter filter zones were created by attaching pre-punched black adhesive tape to the membranes. After filtration the zones were stained with 0.01% w/v Acriflavine™ in phosphate buffer at pH 7.2 [filtered immediately before use]. Direct observation, using an epifluorescence microscope resembles the DEFT method described by Pettifer G L Rodrigues U K [1982] J.Appl.Bact. 53:323-329. Using a large numerical aperture×45 objective it is relatively simple to rank the estimated density of growth.
# The viability test depicts growth responses in terms of organisms recovered and subsequently able to produce colonies on a secondary culture plate. Direct epifluorescence/filtration does constitute rapid detection but in this manual form is both cumbersome and labour intensive. Within these constraints both methods served to assign rankings to the growth response of every well. The two methods were adequate to indicate the presence of growth.
substance,measurement,setting,value
Penicillin,growth response of replicate wells,"Example 1 (no resistant cells added), antibiotic levels higher than 0.015 μg/ml",no evidence of growth
same,growth response of replicate wells,"Examples 1-4, antibiotic concentration 0.004 μg/ml, 32 replicate wells",all 32 replicate wells exhibit continued growth
same,growth response of replicate wells,"Examples 1-4, antibiotic concentration 0.015 μg/ml",the population in some wells exhibits sensitivity
same,growth response of replicate wells,"Examples 2, 3 and 4 (inoculum with increasing proportion of resistant/β lactamase positive cells)",an appreciable number of wells show low grade growth
same,sensitivity of resistant sub-populations in some wells,"Examples 2, 3 and 4, antibiotic concentration 0.250 μg/ml",insensitive

# From patent publication US20030077689A1, “Microbial growth variations” (priority 1999, published 2003)
